# Results: patent US6388080B1, “Polymorphic forms of 6-[4-(1-cyclohexyl-1H-tetrazol-5-yl)butoxy]-3,4-dihydro-2(1H)-quinolinone” (priority 2001, dated 2002)
# Experiments:
# [1] = aqueous solubility of cilostazol polymorphic forms; format: physicochemical; details: for solubility relative to Form A: suggested by lower melting point than Form A in DSC thermogram (FIG. 8)
# bioavailability = format: in vivo; details: Form A as prepared by the procedures of the '479 patent
# [2] = stability of the polymorphic form; format: physicochemical
# [3] = DSC of disturbed sample: solid state phase transformation to Form A; format: physicochemical; details: sample disturbed (scratching/stressed), DSC heating from 30° C. to approximately 200° C. at 10° C. per minute; followed by melt of Form A at about 160° C.
# Excerpt: Characterization of Form A of cilostazol, Form B of cilostazol, and Form C of cilostazol was further completed using DSC thermograms, shown in FIGS. 3, 4, and 5, respectively, with DSC thermograms for combinations of Form A and Form B; Form B and Form C; and Forms A, B, and C are shown in FIGS. 6, 7, and 8 respectively. DSC data were generated using a Mettler-Toledo DSC 821^e(Columbus, Ohio) with a Julabo FT900 intercooler chiller (Julabo Company; Allentown, Pa.). In general, samples were analyzed in a vented, sealed aluminum pan. Because the endothermic peak may vary depending upon the rate of heating and the calibration and precision of the instrument, with the amount of peak variation dependent upon the heating rate used, all thermograms included herein were run under the same, consistent conditions: heating at 10° C. per minute under a nitrogen purge at 40 mL/minute. The resultant sample of Example 1A was disturbed with scratching, which caused the cilostazol sample to undergo a solid state phase transformation at approximately 119° C. followed by an endotherm of melt at approximately 160° C. (Form A) during heating by DSC from 30° C. to approximately 200° C. at 10° C. per minute. When the sample is stressed and reheated (as detailed in Example 2A), the sample undergoes a solid state phase transformation at approximately 147° C. followed by an endotherm of melt at about 160° C. […]
smiles,measurement,setting,value
"O=C1CCc2cc(OCCCCc3nnnn3C3CCCCC3)ccc2N1 [Form A, 6-[4-(1-cyclohexyl-1H-tetrazol-5-yl)butoxy]-3,4-dihydro-2(1H)-quinolinone]",aqueous solubility,[1]; Form A as prepared by the procedures of the '479 patent,low
same,bioavailability,bioavailability,low
"O=C1CCc2cc(OCCCCc3nnnn3C3CCCCC3)ccc2N1 [Form B, 6-[4-(1-cyclohexyl-1H-tetrazol-5-yl)butoxy]-3,4-dihydro-2(1H)-quinolinone]",solubility relative to Form A,[1],more soluble than Form A
same,stability of the form,[2],stable
same,solid state phase transformation temperature,[3],approximately 119 °C
"O=C1CCc2cc(OCCCCc3nnnn3C3CCCCC3)ccc2N1 [Form C, 6-[4-(1-cyclohexyl-1H-tetrazol-5-yl)butoxy]-3,4-dihydro-2(1H)-quinolinone]",solubility relative to Form A,[1],more soluble than Form A
same,stability of the form,[2],stable
same,solid state phase transformation temperature,[3],approximately 147 °C
